# Data taken from PubChem BioAssay (NCI).
#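 Step 1: Grow cells in 96-well plates. Step 2: Expose to compound for 48 hours at 5 concentrations. Step 3: Interpolate endpoints linearly; if unreached, use highest concentration. GI50 = concentration required for 50% inhibition of growth. TGI denotes the concentration required for complete inhibition of growth.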
# Legend:
# Test in all cases: NCI anticancer screen, dose series, 48 h
# SK-MEL-2 melanoma = tested on: SK-MEL-2 melanoma
# SW-620 colon = tested on: SW-620 colon
# NCI-H460 lung = tested on: NCI-H460 lung
# UACC-62 melanoma = tested on: UACC-62 melanoma
# SNB-19 CNS = tested on: SNB-19 CNS
# NCI-H522 lung = tested on: NCI-H522 lung
# A498 renal = tested on: A498 renal
# NCI/ADR-RES ovarian = tested on: NCI/ADR-RES ovarian
# MDA-MB-435 = tested on: MDA-MB-435
# MALME-3M melanoma = tested on: MALME-3M melanoma
# HCC-2998 colon = tested on: HCC-2998 colon
# OVCAR-8 ovarian = tested on: OVCAR-8 ovarian
# HOP-62 NSCLC = tested on: HOP-62 NSCLC
# LOX IMVI melanoma = tested on: LOX IMVI melanoma
# UO-31 renal = tested on: UO-31 renal
# T-47D breast = tested on: T-47D breast
# HT29 colon = tested on: HT29 colon
# PC-3 prostate = tested on: PC-3 prostate
# ACHN renal = tested on: ACHN renal
# IGROV1 ovarian = tested on: IGROV1 ovarian
# SN12C renal = tested on: SN12C renal
# RPMI-8226 leukemia = tested on: RPMI-8226 leukemia
# HOP-92 NSCLC = tested on: HOP-92 NSCLC
# NCI-H226 lung = tested on: NCI-H226 lung
# SK-OV-3 ovarian = tested on: SK-OV-3 ovarian
# EKVX NSCLC = tested on: EKVX NSCLC
# OVCAR-5 ovarian = tested on: OVCAR-5 ovarian
# MCF7 breast = tested on: MCF7 breast
# 786-0 renal = tested on: 786-0 renal
# MDA-MB-231 breast = tested on: MDA-MB-231 breast
# SK-MEL-5 melanoma = tested on: SK-MEL-5 melanoma
# OVCAR-3 ovarian = tested on: OVCAR-3 ovarian
# COLO 205 colon = tested on: COLO 205 colon
# CCRF-CEM leukemia = tested on: CCRF-CEM leukemia
# M14 melanoma = tested on: M14 melanoma
# SF-539 CNS = tested on: SF-539 CNS
# K-562 leukemia = tested on: K-562 leukemia
# A549 NSCLC = tested on: A549 NSCLC
# HL-60(TB) leukemia = tested on: HL-60(TB) leukemia
# DU-145 prostate = tested on: DU-145 prostate
# KM12 colon = tested on: KM12 colon
# NCI-H23 lung = tested on: NCI-H23 lung
# SNB-75 CNS = tested on: SNB-75 CNS
# SF-268 CNS = tested on: SF-268 CNS
# TK-10 renal = tested on: TK-10 renal
# HS 578T breast = tested on: HS 578T breast
# SR leukemia = tested on: SR leukemia
# HCT-116 colon = tested on: HCT-116 colon
# MOLT-4 leukemia = tested on: MOLT-4 leukemia
# SF-295 CNS = tested on: SF-295 CNS
# UACC-257 melanoma = tested on: UACC-257 melanoma
# HCT-15 colon = tested on: HCT-15 colon
# U251 CNS = tested on: U251 CNS
# BT-549 breast = tested on: BT-549 breast
# CAKI-1 renal = tested on: CAKI-1 renal
# RXF 393 renal = tested on: RXF 393 renal
# OVCAR-4 ovarian = tested on: OVCAR-4 ovarian
# SK-MEL-28 melanoma = tested on: SK-MEL-28 melanoma
structure (smiles),measurement,setting,value
OCc1cn(Cc2ccc(Cl)cc2)c2ccccc12,GI50,SK-MEL-2 melanoma,0.986 µM
same,TGI,SK-MEL-2 melanoma,6.72 µM
same,GI50,SW-620 colon,0.811 µM
same,TGI,SW-620 colon,22.9 µM
same,GI50,NCI-H460 lung,0.124 µM
same,TGI,NCI-H460 lung,18.5 µM
same,GI50,UACC-62 melanoma,0.0565 µM
same,TGI,UACC-62 melanoma,0.601 µM
same,GI50,SNB-19 CNS,15.8 µM
same,TGI,SNB-19 CNS,64.5 µM
same,GI50,NCI-H522 lung,3.21 µM
same,TGI,NCI-H522 lung,14.8 µM
same,GI50,A498 renal,0.0115 µM
same,TGI,A498 renal,0.0323 µM
same,GI50,NCI/ADR-RES ovarian,8.41 µM
same,TGI,NCI/ADR-RES ovarian,30.8 µM
same,GI50,MDA-MB-435,17.1 µM
same,TGI,MDA-MB-435,43.9 µM
same,GI50,MALME-3M melanoma,8.68 µM
same,TGI,MALME-3M melanoma,30.5 µM
same,GI50,HCC-2998 colon,4.09 µM
same,TGI,HCC-2998 colon,20.3 µM
same,GI50,OVCAR-8 ovarian,4.36 µM
same,TGI,OVCAR-8 ovarian,40 µM
same,GI50,HOP-62 NSCLC,0.84 µM
same,TGI,HOP-62 NSCLC,21.7 µM
same,GI50,LOX IMVI melanoma,4.26 µM
same,TGI,LOX IMVI melanoma,16.1 µM
same,GI50,UO-31 renal,1.66 µM
same,TGI,UO-31 renal,13 µM
same,GI50,T-47D breast,0.0386 µM
same,TGI,T-47D breast,0.55 µM
same,GI50,HT29 colon,1.35 µM
same,TGI,HT29 colon,17.8 µM
same,GI50,PC-3 prostate,15 µM
same,TGI,PC-3 prostate,47.1 µM
same,GI50,ACHN renal,3.57 µM
same,TGI,ACHN renal,34.2 µM
same,GI50,IGROV1 ovarian,< 0.0227 µM
same,TGI,IGROV1 ovarian,0.709 µM
same,GI50,SN12C renal,4.66 µM
same,TGI,SN12C renal,21.6 µM
same,GI50,RPMI-8226 leukemia,0.636 µM
same,TGI,RPMI-8226 leukemia,5.23 µM
same,GI50,HOP-92 NSCLC,3.03 µM
same,TGI,HOP-92 NSCLC,19.7 µM
same,GI50,NCI-H226 lung,< 0.01 µM
same,TGI,NCI-H226 lung,0.106 µM
same,GI50,SK-OV-3 ovarian,2.88 µM
same,TGI,SK-OV-3 ovarian,33.2 µM
same,GI50,EKVX NSCLC,21.1 µM
same,TGI,EKVX NSCLC,60 µM
same,GI50,OVCAR-5 ovarian,< 0.01 µM
same,TGI,OVCAR-5 ovarian,0.613 µM
same,GI50,MCF7 breast,0.105 µM
same,TGI,MCF7 breast,9.02 µM
same,GI50,786-0 renal,2.51 µM
same,TGI,786-0 renal,21.2 µM
same,GI50,MDA-MB-231 breast,6.02 µM
same,TGI,MDA-MB-231 breast,25.6 µM
same,GI50,SK-MEL-5 melanoma,4.59 µM
same,TGI,SK-MEL-5 melanoma,18.6 µM
same,GI50,OVCAR-3 ovarian,0.495 µM
same,TGI,OVCAR-3 ovarian,8.23 µM
same,GI50,COLO 205 colon,0.615 µM
same,TGI,COLO 205 colon,6.89 µM
same,GI50,CCRF-CEM leukemia,2.2 µM
same,TGI,CCRF-CEM leukemia,16.8 µM
same,GI50,M14 melanoma,5.95 µM
same,TGI,M14 melanoma,22.1 µM
same,GI50,SF-539 CNS,11.5 µM
same,TGI,SF-539 CNS,27.8 µM
same,GI50,K-562 leukemia,1.61 µM
same,TGI,K-562 leukemia,25.4 µM
same,GI50,A549 NSCLC,2.64 µM
same,TGI,A549 NSCLC,40.8 µM
same,GI50,HL-60(TB) leukemia,3.9 µM
same,TGI,HL-60(TB) leukemia,21.4 µM
same,GI50,DU-145 prostate,8.11 µM
same,TGI,DU-145 prostate,31.8 µM
same,GI50,KM12 colon,16.9 µM
same,TGI,KM12 colon,38.1 µM
same,GI50,NCI-H23 lung,3.85 µM
same,TGI,NCI-H23 lung,21.1 µM
same,GI50,SNB-75 CNS,4.52 µM
same,TGI,SNB-75 CNS,19.9 µM
same,GI50,SF-268 CNS,12.3 µM
same,TGI,SF-268 CNS,36.7 µM
same,GI50,TK-10 renal,< 0.0115 µM
same,TGI,TK-10 renal,0.195 µM
same,GI50,HS 578T breast,4.76 µM
same,TGI,HS 578T breast,25.6 µM
same,GI50,SR leukemia,15.9 µM
same,TGI,SR leukemia,71.7 µM
same,GI50,HCT-116 colon,0.0393 µM
same,TGI,HCT-116 colon,12 µM
same,GI50,MOLT-4 leukemia,19.6 µM
same,TGI,MOLT-4 leukemia,54 µM
same,GI50,SF-295 CNS,1.62 µM
same,TGI,SF-295 CNS,32.9 µM
same,GI50,UACC-257 melanoma,0.22 µM
same,TGI,UACC-257 melanoma,0.517 µM
same,GI50,HCT-15 colon,3.44 µM
same,TGI,HCT-15 colon,28.5 µM
same,GI50,U251 CNS,2.62 µM
same,TGI,U251 CNS,22.6 µM
same,GI50,BT-549 breast,3.65 µM
same,TGI,BT-549 breast,17.5 µM
same,TGI,CAKI-1 renal,2.15 µM
same,GI50,RXF 393 renal,0.424 µM
same,TGI,RXF 393 renal,4.44 µM
same,GI50,OVCAR-4 ovarian,0.281 µM
same,TGI,OVCAR-4 ovarian,7.69 µM
same,GI50,SK-MEL-28 melanoma,15.1 µM
same,TGI,SK-MEL-28 melanoma,44 µM
